From patent US10526327B2, “Histone demethylase inhibitors” (CELGENE QUANTICEL RESEARCH, INC., priority 2013, dated 2020)

Columns and labels:
Jarid1B = biological target: T1, Jarid1B (Homo sapiens, UniProt Q9UGL1); assay: Jarid1B in vitro enzyme inhibition assay (TR-FRET); format: biochemical
T1 construct: purchased BPS Bioscience or custom made by MolecularThroughput 50121
T1 sequence (Q9UGL1 2-751): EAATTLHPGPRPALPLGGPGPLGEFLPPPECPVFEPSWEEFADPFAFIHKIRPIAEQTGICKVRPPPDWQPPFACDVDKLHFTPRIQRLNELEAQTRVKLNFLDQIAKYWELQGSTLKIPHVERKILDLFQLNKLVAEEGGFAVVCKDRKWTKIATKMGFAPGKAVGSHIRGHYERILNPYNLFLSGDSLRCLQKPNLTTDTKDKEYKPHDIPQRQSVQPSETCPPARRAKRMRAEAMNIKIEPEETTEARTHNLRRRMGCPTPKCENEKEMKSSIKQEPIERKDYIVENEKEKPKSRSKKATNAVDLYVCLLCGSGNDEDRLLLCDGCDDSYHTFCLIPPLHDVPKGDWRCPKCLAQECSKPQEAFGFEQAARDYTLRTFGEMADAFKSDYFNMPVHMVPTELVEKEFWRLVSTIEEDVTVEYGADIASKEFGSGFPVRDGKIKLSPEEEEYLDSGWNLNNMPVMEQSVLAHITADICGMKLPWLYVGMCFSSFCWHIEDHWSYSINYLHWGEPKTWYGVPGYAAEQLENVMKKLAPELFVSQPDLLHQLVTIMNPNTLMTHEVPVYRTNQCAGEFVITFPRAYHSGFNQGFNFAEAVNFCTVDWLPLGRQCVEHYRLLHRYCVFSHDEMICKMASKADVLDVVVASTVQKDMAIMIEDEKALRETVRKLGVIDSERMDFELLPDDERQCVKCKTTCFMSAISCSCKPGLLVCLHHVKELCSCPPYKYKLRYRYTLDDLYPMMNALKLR
Excerpt: (§1) This assay determines the ability of a test compound to inhibit Jarid1A, Jarid1B, and JMJD2C demethylase activity. Baculovirus expressed Jarid1A (GenBank Accession #NM_001042603, AA1-1090) was purchased from BPS Bioscience (Cat#50110). Baculovirus expressed Jarid1B (GenBank Accession #NM_006618, AA 2-751) was purchased from BPS Bioscience (Cat #50121) or custom made by MolecularThroughput. Baculovirus expressed JMJD2C (GenBank Accession #BC143571, AA 2-372) was purchased from BPS Bioscience (Cat#50105).
The ability of test compounds to inhibit the activity of Jarid1B was determined in 384-well plate format under the following reaction conditions: 0.8 nM Jarid1B, 300 nM H3K4me3-biotin labeled peptide (Anaspec cat #64357), 2 μM alpha-ketoglutaric acid in assay buffer of 50 mM HEPES, pH7.3, 0.005% Brij35, 0.5 mM TCEP, 0.2 mg/ml BSA, 50 μM sodium L-ascorbate, and 2 μM ammonium iron(II) sulfate. Reaction product was determined quantitatively by TR-FRET after the addition of detection reagent Phycolink Streptavidin-allophycocyanin (Prozyme) and Europium-anti-mono-or di-methylated histone H3 lysine 4 (H3K4me1-2) antibody (PerkinElmer) in the presence of 5 mM EDTA in LANCE detection buffer (PerkinElmer) at a final concentration of 25 nM and 1 nM, respectively.
(§2) The assay reaction was initiated by the following: 2 μl of the mixture of 900 nM H3K4me3-biotin labeled peptide and 6 μM alpha-ketoglutaric acid with 2 μl of 11-point serial diluted inhibitor in 3% DMSO was added to each well of the plate, followed by the addition of 2 μl of 2.4 nM Jarid1B to initiate the reaction. The reaction mixture was incubated at room temperature for 30 minutes, and terminated by the addition of 6 μl of 5 mM EDTA in LANCE detection buffer containing 50 nM Phycolink Streptavidin-allophycocyanin and 2 nM Europium-anti-H3K4me1-2 antibody. Plates were read by EnVisionMultilabel Reader in TR-FRET mode (excitation at 320 nm, emission at 615 nm and 665 nm) after 1 hour incubation at room temperature. A ratio was calculated (665/615) for each well and fitted to determine inhibition constant (IC50).

JMJD2C = biological target: T2, JMJD2C (Homo sapiens, UniProt Q9H3R0); assay: JMJD2C in vitro enzyme inhibition assay (TR-FRET); format: biochemical
T2 construct: purchased BPS Bioscience 50105
T2 sequence (Q9H3R0 2-372): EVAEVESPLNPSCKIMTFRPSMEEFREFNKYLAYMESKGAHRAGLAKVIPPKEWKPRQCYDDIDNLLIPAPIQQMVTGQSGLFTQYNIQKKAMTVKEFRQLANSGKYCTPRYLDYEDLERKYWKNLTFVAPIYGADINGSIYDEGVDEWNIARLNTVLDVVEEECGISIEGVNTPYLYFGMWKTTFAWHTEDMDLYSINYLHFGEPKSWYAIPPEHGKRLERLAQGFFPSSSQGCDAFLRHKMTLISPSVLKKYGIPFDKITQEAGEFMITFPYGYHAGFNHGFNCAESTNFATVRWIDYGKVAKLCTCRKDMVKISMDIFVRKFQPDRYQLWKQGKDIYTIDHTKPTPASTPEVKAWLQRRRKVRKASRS
Excerpt: as §1
The ability of test compounds to inhibit the activity of JMJD2C was determined in 384-well plate format under the following reaction conditions: 0.3 nM JMJD2C, 300 nM H3K9me3-biotin labeled peptide (Anaspec cat #64360), 2 μM alpha-ketoglutaric acid in assay buffer of 50 mM HEPES, pH7.3, 0.005% Brij35, 0.5 mM TCEP, 0.2 mg/ml BSA, 50 μM sodium L-ascorbate, and 2 μM ammonium iron(II) sulfate. Reaction product was determined quantitatively by TR-FRET after the addition of detection reagent Phycolink Streptavidin-allophycocyanin (Prozyme) and Europium-anti-di-methylated histone H3 lysine 9 (H3K9me2) antibody (PerkinElmer) in the presence of 5 mM EDTA in LANCE detection buffer (PerkinElmer) at a final concentration of 50 nM and 1 nM, respectively.
as §2, with “nM H3K9me3-biotin” for “nM H3K4me3-biotin”, “DMSO were” for “DMSO was”, “of 0.9” for “of 2.4”, “nM JMJD2C” for “nM Jarid1B”, “containing 100” for “containing 50”, “nM Europium-anti-H3K9me2” for “nM Europium-anti-H3K4me1-2”

Row | IC50 (Jarid1B) [nM] | IC50 (JMJD2C) [nM] | Structure (SMILES)
1 | ≤ 100 | 100 to 1000 | Cn1cnc(-c2nccc3c(O)nc(Oc4ccc(F)c(F)c4)nc23)c1 [Example 81, 2-(3,4-difluorophenoxy)-8-(1-methylimidazol-4-yl)pyrido[3,4-d]pyrimidin-4-ol]
2 | ≤ 100 | 100 to 1000 | COCCOc1ccc(Oc2nc(O)c3ccnc(-c4cn(C)cn4)c3n2)cc1 [Example 82, 2-[4-(2-methoxyethoxy)phenoxy]-8-(1-methylimidazol-4-yl)pyrido[3,4-d]pyrimidin-4-ol]
3 | ≤ 100 | 100 to 1000 | Cn1cnc(-c2nccc3c(O)nc(Oc4ccc5cnn(C)c5c4)nc23)c1 [Example 83, 8-(1-methylimidazol-4-yl)-2-(1-methylindazol-6-yl)oxypyrido[3,4-d]pyrimidin-4-ol]
4 | ≤ 100 | 100 to 1000 | CCn1ncc2ccc(Oc3nc(O)c4ccnc(-c5cn(C)cn5)c4n3)cc21 [Example 84, 2-(1-ethylindazol-6-yl)oxy-8-(1-methylimidazol-4-yl)pyrido[3,4-d]pyrimidin-4-ol]
5 | ≤ 100 | 100 to 1000 | Cc1nn(C)c2cc(Oc3nc(O)c4ccnc(-c5cn(C)cn5)c4n3)ccc12 [Example 85, 2-(1,3-dimethylindazol-6-yl)oxy-8-(1-methylimidazol-4-yl)pyrido[3,4-d]pyrimidin-4-ol]
6 | ≤ 100 | ≤ 100 | Oc1nc(Oc2cnn(Cc3ccc(F)cc3)c2)nc2cnccc12 [Example 86, 2-[1-(4-fluorobenzyl)pyrazol-4-yl]oxypyrido[3,4-d]pyrimidin-4-ol]
7 | ≤ 100 | ≤ 100 | Oc1nc(Oc2cnn(Cc3ccccc3F)c2)nc2cnccc12 [Example 87, 2-[1-(2-fluorobenzyl)pyrazol-4-yl]oxypyrido[3,4-d]pyrimidin-4-ol]
8 | ≤ 100 | 100 to 1000 | CC(C)(C)OC(=O)N1CCC(n2cc(Oc3nc(O)c4ccncc4n3)cn2)CC1 [Example 88, tert-butyl 4-[4-(4-hydroxypyrido[3,4-d]pyrimidin-2-yl)oxypyrazol-1-yl]piperidine-1-carboxylate]
9 | ≤ 100 | ≤ 100 | Oc1nc(Oc2cnn(C3CCNCC3)c2)nc2cnccc12 [Example 89, 2-(1-piperidin-4-ylpyrazol-4-yl)oxypyrido[3,4-d]pyrimidin-4-ol]
10 | ≤ 100 | ≤ 100 | CC(=O)N1CCC(n2cc(Oc3nc(O)c4ccncc4n3)cn2)CC1 [Example 90, 1-[4-[4-(4-hydroxypyrido[3,4-d]pyrimidin-2-yl)oxypyrazol-1-yl]piperidin-1-yl]ethanone]
11 | ≤ 100 | 100 to 1000 | C=CC(=O)N1CCC(n2cc(Oc3nc(O)c4ccncc4n3)cn2)CC1 [Example 91, 1-[4-[4-(4-hydroxypyrido[3,4-d]pyrimidin-2-yl)oxypyrazol-1-yl]piperidin-1-yl]prop-2-en-1-one]
12 | ≤ 100 | ≤ 100 | O=C(C1CC1)N1CCC(n2cc(Oc3nc(O)c4ccncc4n3)cn2)CC1 [Example 92, cyclopropyl-[4-[4-(4-hydroxypyrido[3,4-d]pyrimidin-2-yl)oxypyrazol-1-yl]piperidin-1-yl]methanone]
13 | ≤ 100 | ≤ 100 | O=C(c1ccc(F)cc1)N1CCC(n2cc(Oc3nc(O)c4ccncc4n3)cn2)CC1 [Example 93, (4-fluorophenyl)-[4-[4-(4-hydroxypyrido[3,4-d]pyrimidin-2-yl)oxypyrazol-1-yl]piperidin-1-yl]methanone]
14 | ≤ 100 | ≤ 100 | O=S(=O)(C1CC1)N1CCC(n2cc(Oc3nc(O)c4ccncc4n3)cn2)CC1 [Example 94, 2-[1-(1-cyclopropylsulfonylpiperidin-4-yl)pyrazol-4-yl]oxypyrido[3,4-d]pyrimidin-4-ol]
15 | ≤ 100 | ≤ 100 | O=S(=O)(c1ccccc1)N1CCC(n2cc(Oc3nc(O)c4ccncc4n3)cn2)CC1 [Example 95, 2-[1-[1-(benzenesulfonyl)piperidin-4-yl]pyrazol-4-yl]oxypyrido[3,4-d]pyrimidin-4-ol]
16 | ≤ 100 | 100 to 1000 | Oc1nc(Oc2ccnc(N3CCNCC3)c2)nc2cnccc12 [Example 96, 2-(2-piperazin-1-ylpyridin-4-yl)oxypyrido[3,4-d]pyrimidin-4-ol]
17 | ≤ 100 | 100 to 1000 | Oc1nc(Oc2ccnc(N3CCOCC3)c2)nc2cnccc12 [Example 97, 2-(2-morpholin-4-ylpyridin-4-yl)oxypyrido[3,4-d]pyrimidin-4-ol]
18 | 100 to 1000 | 1000 to 10000 | Cn1cnc(-c2nccc3c(O)nc(OCC(C)(C)O)nc23)c1 [Example 98, 2-(2-hydroxy-2-methylpropoxy)-8-(1-methylimidazol-4-yl)pyrido[3,4-d]pyrimidin-4-ol]
19 | ≤ 100 | 100 to 1000 | CC(c1ccccc1)n1cc(Oc2nc(O)c3ccncc3n2)cn1 (centres unmarked) [Example 99]
20 | ≤ 100 | 100 to 1000 | Cn1cnc(-c2nccc3c(O)nc(Oc4cnn(C5CCOCC5)c4)nc23)c1 [Example 100, 8-(1-methylimidazol-4-yl)-2-[1-(oxan-4-yl)pyrazol-4-yl]oxypyrido[3,4-d]pyrimidin-4-ol]
21 | ≤ 100 | 100 to 1000 | Cn1cnc(-c2nccc3c(O)nc(OCc4ccccc4)nc23)c1 [Example 101, 8-(1-methylimidazol-4-yl)-2-phenylmethoxypyrido[3,4-d]pyrimidin-4-ol]
22 | 100 to 1000 | ≤ 100 | Cn1cnc(-c2nccc3c(O)nc(OCC4CCOCC4)nc23)c1 [Example 102, 8-(1-methyl-1H-imidazol-4-yl)-2-(oxan-4-ylmethoxy)pyrido[3,4-d]pyrimidin-4-ol]
